Laboratory results published in BindingDB's records for doi:10.1002/cbic.200900108 (University of British Columbia, 2009).

Target: T1, Trans-sialidase (Trypanosoma cruzi, UniProt Q26966)
T1 sequence (Q26966 whole entry): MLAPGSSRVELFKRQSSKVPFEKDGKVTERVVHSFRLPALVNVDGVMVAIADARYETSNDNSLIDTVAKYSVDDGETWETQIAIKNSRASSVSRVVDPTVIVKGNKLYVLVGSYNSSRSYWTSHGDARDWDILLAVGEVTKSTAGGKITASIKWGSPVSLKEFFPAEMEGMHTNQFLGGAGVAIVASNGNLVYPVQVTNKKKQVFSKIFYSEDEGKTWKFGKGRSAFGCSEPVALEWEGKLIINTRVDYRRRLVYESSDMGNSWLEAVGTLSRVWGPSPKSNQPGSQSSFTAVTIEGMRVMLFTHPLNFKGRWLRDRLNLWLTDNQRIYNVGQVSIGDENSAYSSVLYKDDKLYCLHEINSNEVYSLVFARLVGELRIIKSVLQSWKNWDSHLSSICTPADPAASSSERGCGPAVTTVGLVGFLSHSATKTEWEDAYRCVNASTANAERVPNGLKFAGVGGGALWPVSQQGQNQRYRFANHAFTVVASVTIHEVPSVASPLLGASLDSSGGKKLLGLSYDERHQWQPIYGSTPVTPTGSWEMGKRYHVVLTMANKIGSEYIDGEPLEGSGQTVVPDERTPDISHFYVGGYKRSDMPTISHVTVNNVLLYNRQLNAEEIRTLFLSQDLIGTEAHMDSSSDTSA
Assay: Inhibition Assay
Conditions: pH 7.6; 35 °C
Text: Inhibition assay using trans-sialidase, a membrane-associated protein.

Row | Compound | IC50 [µM] | Ki [µM]
1 | Cc1ccc(S(=O)(=O)Nc2cccc(C(=O)/C=C/c3ccc(O)c(O)c3)c2)cc1 | 2.5 | 3.7
2 | Cc1ccc(S(=O)(=O)Nc2ccc(C(=O)/C=C/c3ccc(O)cc3)cc2)cc1 | 73 | –
3 | Cc1ccc(S(=O)(=O)Nc2ccc(C(=O)/C=C/c3ccc(O)c(O)c3)cc2)cc1 | 0.9 | 4.6
4 | Cc1ccc(S(=O)(=O)N2c3ccccc3C(=O)/C(=C/c3ccc(O)cc3)C2c2ccc(O)cc2)cc1 (centres undefined) [Quinolinone derivative, 8] | 30 | –
5 | Cc1ccc(S(=O)(=O)N2c3ccccc3C(=O)/C(=C/c3ccc(O)c(O)c3)C2c2ccc(O)c(O)c2)cc1 (centres undefined) [Quinolinone derivative, 9] | 0.6 | 0.4
6 | Cc1ccc(S(=O)(=O)Nc2cccc(C(=O)/C=C/c3ccc(O)cc3)c2)cc1 [Sulfonamide chalcone, 6] | 37 | –
